Experimental data taken from paper PMC8867573 (ACS Omega, 2022).
Like-named read-outs stand apart in the source and are kept apart here.

Experiments:
[1] = target: T1, ScSLAC (small laccase, SLAC) (Streptomyces coelicolor, UniProt Q9XAL8); test: spectrophotometric oxidation, […] nm, Michaelis-Menten or substrate inhibition fit; type: biochemical; conditions: read-out: DMP; pH 8.0, 42 °C; 0.25-15 mM substrate
T1 sequence (Q9XAL8 34-343): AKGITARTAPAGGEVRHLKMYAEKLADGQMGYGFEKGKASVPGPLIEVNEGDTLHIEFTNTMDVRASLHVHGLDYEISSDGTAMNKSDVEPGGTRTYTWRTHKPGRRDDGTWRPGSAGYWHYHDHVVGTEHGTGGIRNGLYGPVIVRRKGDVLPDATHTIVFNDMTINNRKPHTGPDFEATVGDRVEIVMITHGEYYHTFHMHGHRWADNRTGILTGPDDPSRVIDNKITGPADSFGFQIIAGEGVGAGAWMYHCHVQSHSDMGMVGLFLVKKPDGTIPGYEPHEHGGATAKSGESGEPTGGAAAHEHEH

[2] = target: T1, ScSLAC (small laccase, SLAC); test: as above; conditions: read-out: Pyrogallol; pH 8.5, 42 °C; 0.025-1 mM substrate

Row | Km [1] | Km [2] | SMILES
1 | 1100 ± 60 µM | – | COc1cccc(OC)c1O [DMP, 2,6-dimethoxyphenol]
2 | – | 200 ± 60 µM | Oc1cccc(O)c1O [Pyrogallol]
